# Measurements published in patent US20060122282A1, “METHOD FOR TREATING SKIN DISORDERS WITH XANTHOPHYLLS” (priority 2004, published 2006).
# Test: blister healing of the skin (blisters raised, roofs cut off)
# Type: in vivo, human
# Details: topical application before raising the blister; alone or in combination with xanthophylls
# Source text: Experiments have been performed wherein blisters have been raised and the roofs cut off of the skins of individuals of various ages.
smiles,measurement,value
"CC1=C(/C=C/C(C)=C/C=C/C(C)=C/C(=O)O)C(C)(C)CCC1 [tretinoin, all-trans retinoic acid]",healing time of blisters,halves
